In EPA's ToxRefDB 2:

Assays:
[1] = tested on: mouse; settings: Subchronic oral toxicity in rodents, other, Gavage/Intubation, dose end: 13 week, group: systemic, systemic / clinical chemistry / alanine aminotransferase (alt/sgpt) / alanine aminotransferase (alt/sgpt) + systemic / clinical chemistry / …
[2] = tested on: rat; settings: Prenatal developmental toxicity study, sprague dawley, Oral, Gavage/Intubation, dose end: 20 GD
[3] = tested on: rabbit; settings: Prenatal developmental toxicity study, new zealand white, Oral, Gavage/Intubation, dose end: 19 GD
[4] = tested on: rat; settings: Prenatal developmental toxicity study, sprague dawley, Oral, Gavage/Intubation, dose end: 17 GD
[5] = tested on: rat; settings: Acute oral toxicity, wistar, Gavage/Intubation, dose end: 7 day, group: systemic, systemic / clinical chemistry / calcium / calcium + systemic / urinalysis / calcium / calcium
[6] = tested on: rat; settings: Prenatal developmental toxicity study, fischer, Oral, Gavage/Intubation, dose end: 10 GD
[7] = tested on: rat; settings: Prenatal developmental toxicity study, wistar, Oral, Gavage/Intubation, dose end: 10 GD
[8] = tested on: mouse; settings: Combined chronic toxicity/carcinogenicity, b6c3f1, Oral, Gavage/Intubation, dose end: 2 year, group: systemic
[9] = tested on: rat; settings: Combined chronic toxicity/carcinogenicity; fischer; Oral; Gavage/Intubation; dose end: 2 year; group: systemic; systemic / in life observation / body weight / body weight + systemic / pathology microscopic / kidney / nephropathy + systemic / pathology …
[10] = tested on: mouse; settings: Multigenerational reproductive toxicity study, other, Oral, Gavage/Intubation, dose end: 21 PND
[11] = tested on: rat; settings: Subchronic oral toxicity in rodents, fischer, Gavage/Intubation, dose end: 6 month, group: systemic
[12] = tested on: rat; settings: Multigenerational reproductive toxicity study, sprague dawley, Oral, Gavage/Intubation, dose end: 2 generation
[13] = tested on: rat; settings: Subchronic oral toxicity in rodents, wistar, Water, dose end: 90 day
[14] = tested on: rat; settings: Fertility (Segment I), sprague dawley, Oral, Gavage/Intubation, dose end: 0 mating
[15] = tested on: mouse; settings: Subchronic oral toxicity in rodents, b6c3f1, Gavage/Intubation, dose end: 6 month, group: systemic
[16] = group: developmental, developmental / developmental malformation / bone / [other] + developmental / developmental malformation / bone / fused + developmental / …
[17] = group: developmental, systemic / in life observation / body weight / fetal weight
[18] = group: maternal, reproductive / reproductive performance / postimplantation loss / postimplantation loss + systemic / in life observation / body weight / …
[19] = group: maternal, systemic / in life observation / body weight / body weight gain
[20] = group: maternal, reproductive / reproductive performance / aborted / aborted + systemic / in life observation / body weight / body weight + systemic / in …
[21] = group: developmental, developmental / developmental malformation / bone / [other] + developmental / developmental malformation / bone / kinked + developmental / …
[22] = group: developmental, developmental / developmental malformation / heart / [other] + developmental / developmental malformation / ureter / convoluted
[23] = group: maternal, reproductive / reproductive performance / postimplantation loss / postimplantation loss + reproductive / reproductive performance / …
[24] = group: maternal, systemic / organ weight / uterus / nos + reproductive / offspring survival early / live fetuses / live fetuses
[25] = group: developmental, developmental / developmental malformation / bone / [other] + developmental / developmental malformation / general / crown-rump length + …
[26] = group: maternal, reproductive / reproductive performance / resorptions / resorptions + reproductive / offspring survival early / dead fetuses / dead fetuses…
[27] = group: developmental, developmental / developmental malformation / bone / [other] + developmental / developmental malformation / bone / incomplete ossification + …
[28] = group: maternal, reproductive / reproductive performance / resorptions / resorptions + reproductive / offspring survival early / dead fetuses / dead fetuses
[29] = systemic / pathology microscopic / kidney / nephropathy + systemic / pathology microscopic / kidney / vacuolization cytoplasmic
[30] = systemic / pathology microscopic / kidney / nephropathy + systemic / pathology microscopic / kidney / vacuolization cytoplasmic + systemic…
[31] = group: offspring, developmental / offspring survival late / viability index / viability index
[32] = group: parental, systemic / organ weight / kidney / relative to body weight
[33] = group: parental, systemic / organ weight / kidney / relative to body weight + systemic / in life observation / body weight / body weight
[34] = group: reproductive, reproductive / reproductive performance / fertility / fertility
[35] = group: reproductive, reproductive / reproductive performance / fertility / fertility + reproductive / offspring survival early / live fetuses / live fetuses
[36] = systemic / in life observation / body weight / body weight + systemic / clinical chemistry / alanine aminotransferase (alt/sgpt) / alanine …
[37] = group: offspring, developmental / offspring survival late / viability index / viability index + systemic / in life observation / body weight / offspring (pup…
[38] = group: offspring, systemic / in life observation / body weight / offspring (pup) weight + systemic / organ weight / liver / absolute + systemic / organ weight…
[39] = group: parental, systemic / in life observation / body weight / body weight + systemic / in life observation / mortality / mortality + systemic / organ …
[40] = group: parental, systemic / in life observation / mortality / mortality + systemic / organ weight / kidney / absolute + systemic / organ weight / kidney / …
[41] = group: reproductive, reproductive / reproductive performance / fertility / fertility + reproductive / offspring survival early / litter size / litter size + …
[42] = group: reproductive, reproductive / reproductive performance / fertility / fertility + reproductive / reproductive performance / implantations / implantations + …
[43] = group: maternal, reproductive / reproductive performance / fertility / fertility + reproductive / reproductive performance / mating / mating
[44] = group: systemic, systemic / organ weight / epididymis / absolute + systemic / organ weight / prostate / absolute + systemic / organ weight / seminal vesicle…
[45] = group: systemic, systemic / pathology gross / sperm measure / sperm count + systemic / pathology gross / sperm measure / sperm motility
[46] = group: maternal, reproductive / reproductive performance / implantations / implantations
[47] = group: parental, systemic / clinical chemistry / luteinizing hormone (lh) / luteinizing hormone (lh) + systemic / clinical chemistry / progesterone / …
[48] = group: parental, systemic / in life observation / body weight / body weight gain
[49] = systemic / pathology microscopic / kidney / vacuolization cytoplasmic + systemic / in life observation / body weight / body weight + …

## CC[C@H](C)C(=O)O[C@H]1C[C@@H](C)C=C2C=C[C@H](C)[C@H](CC[C@@H]3C[C@@H](O)CC(=O)O3)[C@H]21 [Lovastatin]
[1]
  LEL: 30 mg/kg/day
  LOAEL: > 30 mg/kg/day
  NEL: < 30 mg/kg/day
  NOAEL: ≥ 30 mg/kg/day
[2]; [16]
  LOAEL: > 800 mg/kg/day
  NOAEL: ≥ 800 mg/kg/day
[2]; [17]
  LEL: 100 mg/kg/day
  NEL: < 100 mg/kg/day
[2]; [18]
  LOAEL: > 800 mg/kg/day
  NOAEL: ≥ 800 mg/kg/day
[2]; [19]
  LEL: 100 mg/kg/day
  NEL: < 100 mg/kg/day

## CC(=O)Oc1ccccc1C(=O)O [Aspirin]
[3]; [17]
  LEL: 350 mg/kg/day
  LOAEL: > 350 mg/kg/day
  NEL: 250 mg/kg/day
  NOAEL: ≥ 350 mg/kg/day
[3]; [20]
  LOAEL: > 350 mg/kg/day
  NEL: 125 mg/kg/day
  NOAEL: ≥ 350 mg/kg/day
[3]; group: maternal, systemic / in life observation / body weight / body weight gain + systemic / in life observation / clinical signs / defecation (diarrhea) + …
  LEL: 250 mg/kg/day
[4]; [21]
  LOAEL: > 1000 mg/kg/day
  NOAEL: ≥ 1000 mg/kg/day
[4]; [22]
  LEL: 50 mg/kg/day
  NEL: < 50 mg/kg/day
[4]; [23]
  LOAEL: > 1000 mg/kg/day
  NOAEL: ≥ 1000 mg/kg/day
[4]; [24]
  LEL: 50 mg/kg/day
  NEL: < 50 mg/kg/day
[5]
  LEL: 100 mg/kg/day
  LOAEL: > 100 mg/kg/day
  NEL: < 100 mg/kg/day
  NOAEL: ≥ 100 mg/kg/day
[6]; [25]
  LEL: 500 mg/kg/day
  LOAEL: > 625 mg/kg/day
  NEL: < 500 mg/kg/day
  NOAEL: ≥ 625 mg/kg/day
[6]; group: maternal, reproductive / reproductive performance / resorptions / resorptions
  NEL: 500 mg/kg/day
[6]; [26]
  LEL: 625 mg/kg/day
  LOAEL: > 625 mg/kg/day
  NOAEL: ≥ 625 mg/kg/day
[7]; [27]
  LEL: 500 mg/kg/day
  LOAEL: > 500 mg/kg/day
  NEL: < 500 mg/kg/day
  NOAEL: ≥ 500 mg/kg/day
[7]; [28]
  LEL: 500 mg/kg/day
  LOAEL: > 500 mg/kg/day
  NEL: < 500 mg/kg/day
  NOAEL: ≥ 500 mg/kg/day

## [Cl][Hg][Cl] [Mercuric chloride]
[8]; [29]
  LOAEL: 5 mg/kg/day
  NOAEL: < 5 mg/kg/day
[8]; [30]
  LEL: 5 mg/kg/day
  NEL: < 5 mg/kg/day
[9]
  LEL: 2.5 mg/kg/day
  LOAEL: 2.5 mg/kg/day
  NEL: < 2.5 mg/kg/day
  NOAEL: < 2.5 mg/kg/day
[10]; [31]
  LEL: 1 mg/kg/day
  LOAEL: > 1 mg/kg/day
  NEL: 0.5 mg/kg/day
  NOAEL: ≥ 1 mg/kg/day
[10]; [32]
  LEL: 0.25 mg/kg/day
  NEL: < 0.25 mg/kg/day
[10]; [33]
  LOAEL: > 1 mg/kg/day
  NOAEL: ≥ 1 mg/kg/day
[10]; [34]
  LEL: 0.25 mg/kg/day
  NEL: < 0.25 mg/kg/day
[10]; [35]
  LOAEL: > 1 mg/kg/day
  NOAEL: ≥ 1 mg/kg/day
[11]; [36]
  LEL: 0.312 mg/kg/day
  NEL: < 0.312 mg/kg/day
[11]; systemic / in life observation / body weight / body weight + systemic / pathology microscopic / kidney / nephropathy + systemic / organ …
  NOAEL: 2.5 mg/kg/day
[11]; systemic / pathology microscopic / kidney / nephropathy
  LOAEL: 5 mg/kg/day
[12]; [37]
  LOAEL: > 2.5 mg/kg/day
  NOAEL: ≥ 2.5 mg/kg/day
[12]; [38]
  LEL: 0.5 mg/kg/day
  NEL: < 0.5 mg/kg/day
[12]; [39]
  LOAEL: > 2.5 mg/kg/day
  NOAEL: ≥ 2.5 mg/kg/day
[12]; [40]
  LEL: 0.5 mg/kg/day
  NEL: < 0.5 mg/kg/day
[12]; [41]
  LEL: 0.5 mg/kg/day
  NEL: < 0.5 mg/kg/day
[12]; [42]
  LOAEL: > 2.5 mg/kg/day
  NOAEL: ≥ 2.5 mg/kg/day
[13]; [43]
  LEL: 5 mg/kg/day
  LOAEL: > 5 mg/kg/day
  NEL: 2.5 mg/kg/day
  NOAEL: ≥ 5 mg/kg/day
[13]; [44]
  LOAEL: > 5 mg/kg/day
  NOAEL: ≥ 5 mg/kg/day
[13]; [45]
  LEL: 2.5 mg/kg/day
  NEL: < 2.5 mg/kg/day
[14]; [46]
  LEL: 2 mg/kg/day
  LOAEL: > 2 mg/kg/day
  NEL: 1 mg/kg/day
  NOAEL: ≥ 2 mg/kg/day
[14]; [47]
  LOAEL: > 2 mg/kg/day
  NOAEL: ≥ 2 mg/kg/day
[14]; [48]
  LEL: 1 mg/kg/day
  NEL: < 1 mg/kg/day
[15]; systemic / pathology microscopic / kidney / vacuolization cytoplasmic
  LOAEL: 10 mg/kg/day
[15]; [49]
  NEL: 2.5 mg/kg/day
  NOAEL: 5 mg/kg/day
[15]; systemic / pathology microscopic / kidney / vacuolization cytoplasmic + systemic / organ weight / kidney / absolute
  LEL: 5 mg/kg/day
